Patent publication US20030008335A1, “Biosensor for drug candidates” (priority 2001, published 2003)
pEC50: −log10 of the molar value. Read-outs that look alike come from different tables or passages of the source.

Legend:
[1] = test system: bovine aortic endothelial cells (ECs); test: Fluorescence light microscopy of actin-stained ECs on the gold QCM crystal surface; assay type: cell-based; conditions: 15 μM (FIG. 8B), four hours treatment
Method: For actin localization in the multichamber wells or in the QCM device, media was aspirated and replaced with 3.5% formaldehyde. The cells were fixed for 15 mins at room temperature, washed with PBS and then incubated with rhodamine-labeled phalloidin (0.165 μM in PBS) for 30 mins at room temperature. The cells were then washed with PBS and coverslipped with Cytoseal mounting medium (VWR Scientific). The cells were examined using an Olympus BH2 CTD microscope, and the images were digitized using a CCD camera and imported into Photoshop 5.0 of Adobe® and using a Gateways® P11-390 computer. Actin localization within cells grown and or treated with nocodazole in the QCM. We wished to examine the ECs directly attached to the QCM surface with and without nocodazole treatment. Since the […] needed to be chemically fixed on the surface, we needed to sacrifice crystals for this purpose. Two different crystals were used. The first crystal was used to visualize ECs growing on the gold QCM surface at the steady state condition. At the conclusion of the QCM measurement, cells on the crystals were stained to localize actin microfilaments. In the first experiment, ECs were added to the crystal and were allowed to attach for 24 hrs to achieve their normal characteristic Δf and ΔR shifts. […]

[2] = test system: bovine aortic endothelial cells (ECs); test: Fluorescence light microscopy of actin-stained ECs in multichamber LabTek slides (QCM simulation); assay type: cell-based; conditions: for EC shape and morphology (actin stain): 4 hr treatment
Method: To acquire detailed information about the change in cell shape and attachment while ECs were exposed to varying nocodazole concentrations, we performed a simulation experiment. 76,400 ECs were plated into multichamber LabTek slides and were allowed to attach for 24 hrs in normal growth media. This number of cells simulates the cell surface density in the QCM device. 50 μL of media was then removed and replaced with 50 μL of media with or without concentrated nocodazole. In duplicate, cells either received no nocodazole (control) or final concentrations of 0.33, 1, 2, 6 or 15 μM nocodazole. After four hours, the cells were fixed and stained to reveal the actin microfilament arrangement within the cells, as described below. These studies were performed to detect the shape and attachment changes in ECs that would roughly correspond to a time when the QCM detected maximal shifts in f and R values. […] For actin localization in the multichamber wells or in the QCM device, media was aspirated and replaced with 3.5% formaldehyde. The cells were fixed for 15 mins at room temperature, washed with PBS and then incubated with rhodamine-labeled phalloidin (0.165 μM in PBS) for 30 mins at room temperature. The cells were then washed with PBS and coverslipped with Cytoseal mounting medium (VWR Scientific). The cells were examined using an Olympus BH2 CTD microscope, and the images were digitized using a CCD camera and imported into Photoshop 5.0 of Adobe® and using a Gateways® P11-390 computer.

[3] = test system: bovine aortic endothelial cells (ECs); test: EC QCM biosensor: Δf and ΔR shifts of attached endothelial cells after drug addition; assay type: cell-based; conditions: for pEC50: Bos taurus, Endothelial cell
Description: The details of how these measurements were made have been presented previously. Basically, an AT cut quartz crystal of resonant frequency 8.85 MHz with gold electrode (5 mm diameter)was used in a cylindrical Teflon cell (Seiko EG&G). The crystal was sandwiched between two silicone O-rings to allow only one side of the electrode to be exposed to the media and serum containing solution (FIG. 1B). The QCM device was placed within a large petri dish, filled with distilled water, at a level well […] the water surface. This water reservoir allowed humidity to be maintained, preventing evaporation from the QCM cell. The QCM was covered with a petri dish cover plate following placement inside a 37° C. temperature regulated cell incubator. A Model QCA 917 Quartz Crystal Analyzer System (Seiko EG&G), comprised of a Main Unit and Oscillator, was used for the simultaneous measurement of the resonant frequency (f) and resonance admittance (A). Before assembly in the well holder, the gold QCM surface was treated chemically to render it hydrophilic. A drop of 1:3 H2O2 (30%): H2SO4 at 80° C. was placed upon and covered the gold surface for 5 minutes, followed by rinsing with distilled water and drying under N2. This procedure was repeated three times. After sterilization and washing with water and PBS, 52 μl of media and 10% Calf Serum (CS) was added onto the QCM electrode and the entire holder was put into a humidified CO2 incubator controlled at 10% CO2. The f and admittance (A) values were automatically monitored at 1 minute intervals using a PC and WinWedge 32, version 3.0 Software (TAL Technologies®) and the stable values at 2 hour were taken as reference values before the addition of cells. After 2 hours, 250 μl media +10% CS containing a specific number of cells was added evenly to the medium surface. Then f and A values were automatically monitored during the process of EC sedimentation to the crystal surface, and during their impact and spreading over a 20 hr period to achieve steady state attachment. In the data reduction phase, values of A, in μS were converted into motional resistance, R, in units of Ω, using the relationship R=10^6/A. Nocodazole achieved its final concentration by being added in a pre-warned 50 μl volume of media and serum, following removal of 50 μl from the top of the EC QCM biosensor well holder. Following the conclusion of each experiment, trypsinable ECs adhering to the gold QCM surface were determined as described below. Bovine aortic endothelial cells (BAEs) were obtained from Clonetics, Inc., and were maintained as stock cultures in DMEM-10% CS, as previously described. BAEs were not used beyond passage 22. For experimental treatments, ECs were trypsinized, washed with PBS, and precise counts of the number of cells were made using an electronic cell counter made by Coulter, Inc., following resuspension in full media (250 μl). At the end of a QCM experiment, cells firmly attached were determined via trypsinization assay and an electronic counter. This protocol involved the following steps. Media was collected from the QCM (M). The QCM was gently washed with 100 μl PBS (W). After 125 μl trypsin (0.05% w/v trypsin, 0.53 mM EDTA, in Hank's Buffered salt solution) was added and incubated for 6 min. at 37° C., this fraction was collected (T1). Following a second trypsinization wash, identical to the first, this fraction was collected (T2). Aliquots from all of the four steps (M, W, T1, T2) were electronically counted using Coulter counting. After trypsinization, the QCM electrode was washed successively with PBS, water, ethanol, then detached from the well holder. It was then cleaned sequentially with a number of reagents to remove all residual ECM and cell debris, as we have previously described. Cleaned in this way, the QCM was used repeatedly with good reproducibility of its initial f and R values, due to complete protein removal from the QCM surface.

[4] = test system: bovine aortic endothelial cells (ECs); conditions: 3 ng/ml, over 3 days following administration; cited from earlier work
[5] = fluorescence light microscope observations
[6] = 15 μM, ECs beginning to detach from crystal surface

Compound	EC shape and morphology on QCM crystal (actin stain) [1]	EC shape and morphology (actin stain) ([2]; 0.33 μM)	EC shape and morphology (actin stain) ([2]; 1 and 2 μM)	EC shape and morphology (actin stain) ([2]; 6 and 15 μM)	concentration at which changes in EC intercellular contacts and progressive cell rounding begin [2, 5]	concentration by which changes in EC intercellular contacts and cell rounding saturate [2, 5] [µM]	initial maximum increase in ΔR after drug addition ([3]; 2.0 μM final concentration, 20,000 ECs added, steady state biosensor)	Δf drop after drug addition ([3]; 2.0 μM final concentration, over the next 4 hours, 20,000 ECs added, steady state biosensor) [Hz]	Δ(ΔR) value at 15 μM relative to that measured at 6 μM [3, 6] [%]	Δ(Δf) value at 15 μM relative to that measured at 6 μM [3, 6] [%]	pEC50 ([3]; as printed in the conclusion, read-out: PC50 (midpoint value of dose effect curve))	pEC50 ([3]; dose curves of Δ(Δf) and Δ(ΔR) vs log concentration, 0.11-6 μM, read-out: PC50 (effective change in cellular attachment in 50% of the ECs, transition midpoint of dose curve))	growth stimulation of ECs on the QCM biosensor [4]
COC(=O)Nc1nc2ccc(C(=O)c3cccs3)cc2[nH]1 [nocodazole]	lost cell-cell contact	smaller than control cells	the monolayer became disrupted	significantly reduced cellular area	around 330 nM	≤ 6	14 Ω	360	50	50	6.05	~6.05	
Fibroblast Growth Factor													stimulated the ECs to divide
